According to patent US20220046923A1, “HERBICIDAL CINNOLINIUM COMPOUNDS” (SYNGENTA CROP PROTECTION AG, priority 2018, published 2022):

Experiments:
Assay in all cases: Post-emergence efficacy, glasshouse spray test
Format in all cases: in vivo
Details in all cases: evaluated after 13 days
[1] = test system: Amaranthus palmeri (AMAPA)
In short: (§1)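 Plants sown in standard soil were grown 14 days in a glasshouse (24/16 °C day/night, 14 h light, 65% humidity) and then sprayed post-emergence. Compound in acetone/IF50 emulsifier mix was diluted in 0.25% or 1% Empicol ESC70 + 1% ammonium sulphate. Damage was scored after 13 days (0 = none, 100 = total).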

[2] = test system: Chenopodium album (CHEAL)
In short: as §1

[3] = test system: Digitaria sanguinalis (DIGSA)
In short: as §1

[4] = test system: Echinochloa crus-galli (ECHCG)
In short: as §1

Eleusine indica (ELEIN) = test system: Eleusine indica (ELEIN)
In short: as §1

[5] = test system: Euphorbia heterophylla (EPHHL)
In short: as §1

[6] = test system: Ipomoea hederacea (IPOHE)
In short: as §1

Lolium perenne (LOLPE) = test system: Lolium perenne (LOLPE)
In short: as §1

Setaria faberi (SETFA) = test system: Setaria faberi (SETFA)
In short: as §1

[7] = Amaranthus palmeri, post-emergence, 312 h, application rate 1000 g/Ha, read-out: Control of weed species AMAPA after post-emergence application (100=total damage to plant; 0=no damage to plant)
[8] = Chenopodium album, post-emergence, 312 h, application rate 1000 g/Ha, read-out: Control of weed species CHEAL after post-emergence application (100=total damage to plant; 0=no damage to plant)
[9] = Digitaria sanguinalis, post-emergence, 312 h, application rate 1000 g/Ha, read-out: Control of weed species DIGSA after post-emergence application (100=total damage to plant; 0=no damage to plant)
[10] = Echinochloa crus-galli, post-emergence, 312 h, application rate 1000 g/Ha, read-out: Control of weed species ECHCG after post-emergence application (100=total damage to plant; 0=no damage to plant)
[11] = Eleusine indica, post-emergence, 312 h, application rate 1000 g/Ha, read-out: Control of weed species ELEIN after post-emergence application (100=total damage to plant; 0=no damage to plant)
[12] = Euphorbia heterophylla, post-emergence, 312 h, application rate 1000 g/Ha, read-out: Control of weed species EPHHL after post-emergence application (100=total damage to plant; 0=no damage to plant)
[13] = Ipomoea hederacea, post-emergence, 312 h, application rate 1000 g/Ha, read-out: Control of weed species IPOHE after post-emergence application (100=total damage to plant; 0=no damage to plant)
[14] = Lolium perenne, post-emergence, 312 h, application rate 1000 g/Ha, read-out: Control of weed species LOLPE after post-emergence application (100=total damage to plant; 0=no damage to plant)
[15] = Setaria faberi, post-emergence, 312 h, application rate 1000 g/Ha, read-out: Control of weed species SETFA after post-emergence application (100=total damage to plant; 0=no damage to plant)

Row | Compound | pest or weed control at 1000 g/ha [1, 7] [%] | pest or weed control at 1000 g/ha [2, 8] [%] | pest or weed control at 1000 g/ha [3, 9] [%] | pest or weed control at 1000 g/ha [4, 10] [%] | pest or weed control at 1000 g/ha (Eleusine indica (ELEIN); [11]) [%] | pest or weed control at 1000 g/ha [5, 12] [%] | pest or weed control at 1000 g/ha [6, 13] [%] | pest or weed control at 1000 g/ha (Lolium perenne (LOLPE); [14]) [%] | pest or weed control at 1000 g/ha (Setaria faberi (SETFA); [15]) [%] | other results
1 | Cc1ccc2n[n+](CCS(=O)(=O)[O-])ccc2c1 [Compound A32] | 90 | 90 | 70 | 80 | 90 | 90 | 70 | 30 | 60 | 
2 | COc1ccc2n[n+](CCS(=O)(=O)[O-])ccc2c1 [Compound A37] | 0 | 0 | 60 | 50 | 60 | 20 | 10 | 20 | 40 | 
3 | COc1c[n+](CCS(=O)(=O)[O-])nc2ccccc12 [Compound A38] | 20 | 40 | 20 | 30 | 10 | 30 | 30 | 10 | 10 | 
4 | O=S(=O)([O-])CCC[n+]1cc(C(Cl)Cl)c2ccccc2n1 [Compound A39, 3-[4-(dichloromethyl)cinnolin-2-ium-2-yl]propane-1-sulfonate] | 10 | 20 | 10 | 10 | 10 | 40 | 30 | 0 | 0 | 
5 | O=S(=O)([O-])CCC[n+]1cc(C(Cl)(Cl)Cl)c2ccccc2n1 [Compound A40] |  |  |  |  |  |  |  |  |  | pest or weed control at 500 g/ha ([1]; Amaranthus palmeri, post-emergence, 312 h, application rate 500 g/Ha, read-out: Control of weed species AMAPA after post-emergence application (100=total damage to plant; 0=no damage to plant)): 50%; pest or weed control at 500 g/ha ([2]; Chenopodium album, post-emergence, 312 h, application rate 500 g/Ha, read-out: Control of weed species CHEAL after post-emergence application (100=total damage to plant; 0=no damage to plant)): 50%; pest or weed control at 500 g/ha ([3]; Digitaria sanguinalis, post-emergence, 312 h, application rate 500 g/Ha, read-out: Control of weed species DIGSA after post-emergence application (100=total damage to plant; 0=no damage to plant)): 10%; pest or weed control at 500 g/ha ([4]; Echinochloa crus-galli, post-emergence, 312 h, application rate 500 g/Ha, read-out: Control of weed species ECHCG after post-emergence application (100=total damage to plant; 0=no damage to plant)): 30%; pest or weed control at 500 g/ha (Eleusine indica (ELEIN); Eleusine indica, post-emergence, 312 h, application rate 500 g/Ha, read-out: Control of weed species ELEIN after post-emergence application (100=total damage to plant; 0=no damage to plant)): 20%; pest or weed control at 500 g/ha ([5]; Euphorbia heterophylla, post-emergence, 312 h, application rate 500 g/Ha, read-out: Control of weed species EPHHL after post-emergence application (100=total damage to plant; 0=no damage to plant)): 40%; pest or weed control at 500 g/ha ([6]; Ipomoea hederacea, post-emergence, 312 h, application rate 500 g/Ha, read-out: Control of weed species IPOHE after post-emergence application (100=total damage to plant; 0=no damage to plant)): 50%; pest or weed control at 500 g/ha (Lolium perenne (LOLPE); Lolium perenne, post-emergence, 312 h, application rate 500 g/Ha, read-out: Control of weed species LOLPE after post-emergence application (100=total damage to plant; 0=no damage to plant)): 0%; pest or weed control at 500 g/ha (Setaria faberi (SETFA); Setaria faberi, post-emergence, 312 h, application rate 500 g/Ha, read-out: Control of weed species SETFA after post-emergence application (100=total damage to plant; 0=no damage to plant)): 0%
6 | O=S(=O)([O-])NCC[n+]1ccc2ccccc2n1 [Compound A41] | 100 | 100 | 80 | 30 | 100 | 100 | 80 | 70 | 90 | 
7 | O=S(=O)(O)CC[n+]1ccc2cccc(I)c2n1 [Compound A42, 2-(8-iodocinnolin-2-ium-2-yl)ethanesulfonic acid 2,2,2-trifluoroacetate] | 90 | 50 | 40 | 20 | 80 | 50 | 70 | 10 | 50 | 
8 | CC(CC[n+]1ccc2ccccc2n1)S(=O)(=O)[O-] (stereo not drawn) [Compound A43, 4-cinnolin-2-ium-2-ylbutane-2-sulfonate] | 100 | 100 | 80 | 70 | 100 | 100 | 80 | 40 | 70 | 
9 | CSc1c[n+](CCS(=O)(=O)O)nc2ccccc12.O=C([O-])C(F)(F)F [Compound A44] |  |  |  |  |  |  |  |  |  | Control of weed species AMAPA after post-emergence application (100=total damage to plant; 0=no damage to plant) ([1]; application rate 1000 g/Ha): 30; Control of weed species CHEAL after post-emergence application (100=total damage to plant; 0=no damage to plant) ([2]; application rate 1000 g/Ha): 30; Control of weed species DIGSA after post-emergence application (100=total damage to plant; 0=no damage to plant) ([3]; application rate 1000 g/Ha): 30; Control of weed species ECHCG after post-emergence application (100=total damage to plant; 0=no damage to plant) ([4]; application rate 1000 g/Ha): 10; Control of weed species ELEIN after post-emergence application (100=total damage to plant; 0=no damage to plant) (Eleusine indica (ELEIN); application rate 1000 g/Ha): 70; Control of weed species EPHHL after post-emergence application (100=total damage to plant; 0=no damage to plant) ([5]; application rate 1000 g/Ha): 90; Control of weed species IPOHE after post-emergence application (100=total damage to plant; 0=no damage to plant) ([6]; application rate 1000 g/Ha): 20; Control of weed species LOLPE after post-emergence application (100=total damage to plant; 0=no damage to plant) (Lolium perenne (LOLPE); application rate 1000 g/Ha): 0; Control of weed species SETFA after post-emergence application (100=total damage to plant; 0=no damage to plant) (Setaria faberi (SETFA); application rate 1000 g/Ha): 30
10 | C[C@@H](C[n+]1ccc2ccccc2n1)NS(=O)(=O)[O-] [Compound A45, N-[(1S)-2-cinnolin-2-ium-2-yl-1-methyl-ethyl]sulfamate] | 100 | 80 | 80 | 40 | 100 | 100 | 60 | 60 | 80 | 
11 | C[C@H](C[n+]1ccc2ccccc2n1)NS(=O)(=O)[O-] [Compound A46] | 100 | 70 | 70 | 30 | 90 | 100 | 70 | 40 | 60 | 
12 | O=S(=O)([O-])N1CCC[C@H]1C[n+]1ccc2ccccc2n1 [Compound A47] | 100 | 60 | 90 | 30 | 90 | 60 | 20 | 10 | 40 | 
13 | O=S(=O)([O-])C[n+]1ccc2ccccc2n1 [Compound A48, cinnolin-2-ium-2-ylmethanesulfonate] | 100 | 80 | 60 | 40 | 90 | 100 | 100 | 70 | 70 | 
14 | C[C@H](CNS(=O)(=O)[O-])[n+]1ccc2ccccc2n1 [Compound A49] | 100 | 90 | 70 | 60 | 90 | 90 | 80 | 50 | 60 | 
